Assay results from patent publication US8895504B2, “Amylin derivatives” (priority 2008, dated 2014).
*1 amine or outer side, *2 acyl side, *3 side chain or, on linkers, in order; H or OH if unused. Where a SMILES comes first, the peptide text is derived from it. Bridges are numbered along the chain shown (N, C = ends). The star is where a group is joined. C20 diacid = O=C(O)CCCCCCCCCCCCCCCCCCC(=O)*; C18 diacid = O=C(O)CCCCCCCCCCCCCCCCC(=O)*; γGlu = O=C(O)[C@H](CCC(=O)[*:2])N[*:1]; AEEA = NCCOCCOCC(=O)O

The compounds below were run against T1, Amylin 3(a) receptor (human calcitonin receptor (CTa) and RAMP-3) (Homo sapiens, UniProt O60896+P30988) (assay: Luciferase assay (III), BHK Amylin 3(a)//CRE-luc cells). Details: BHK cells with Amylin 3(a) receptor and CRE luciferase reporter, 4 hours incubation; read-out: Potency Luciferase.
T1 construct: expressed in transfected cells; host or cells: BHK570 cells, stably transfected with a CRE-luciferase reporter
Assay type: cell-based
From the text: It has previously been published (Poyner D R et al 2002, Pharmacological Reviews 54(2) 233-246) that activation of Amylin receptors (coexpression of Calcitonin receptor and receptor activity modifying peptides RAMPs) by Amylin leads to an increase in the intracellular concentration of cAMP. Consequently, transcription is activated at promoters containing multiple copies of the cAMP response element (CRE). It is thus possible to measure Amylin activity by use of a CRE luciferase reporter gene introduced into BHK cells also expressing an Amylin receptor.
2. Construction of an Amylin 3(a)/CRE-luc Cell Line
A BHK570 cell line stably transfected with the human calcitonin receptor (CTa) and a CRE-responsive luciferase reportergene. The cell line was further transfected with RAMP-3, using standard methods. This turns the Calcitonin receptor into an Amylin 3(a) receptor. Methotrexate, Neomycin, and Hygromycin are selection markers for luciferase, the Calcitonin receptor, and RAMP-3, respectively.
3. Amylin Luciferase Assay
To perform activity assays, BHK Amylin 3(a)//CRE-luc cells were seeded in white 96 well culture plates at a density of about 20,000 cells/well. The cells were in 100 μl growth medium (DMEM with 10% FBS, 1% Pen/Strep, 1 mM Na-pyruvate, 250 nM Methotrexate, 500 μg/ml Neomycin, and 400 μg/ml Hygromycin). After incubation overnight at 37° C. and 5% CO2, the growth medium was replaced by 50 μl/well assay medium (DMEM (without phenol red), Glumamax™, 10% FBS, and 10 mM Hepes, pH 7,4). Further, 50 μl/well of standard or sample in assay buffer were added. After 4 hours incubation at 37° C. and 5% CO2, the assay medium with standard or sample were removed and replaced by 100 μl/well PBS. Further, 100 μl/well LucLite™ was added. The plates were sealed and incubated at room temperature for 30 minutes. Finally, luminescence was measured on a TopCounter (Packard) in SPC (single photon counting) mode.

T1 sequence (O60896 24-148): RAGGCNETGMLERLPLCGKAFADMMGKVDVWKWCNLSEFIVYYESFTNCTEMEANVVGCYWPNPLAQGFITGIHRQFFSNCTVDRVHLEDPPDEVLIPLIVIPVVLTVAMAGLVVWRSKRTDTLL
T1 sequence (P30988 25-474): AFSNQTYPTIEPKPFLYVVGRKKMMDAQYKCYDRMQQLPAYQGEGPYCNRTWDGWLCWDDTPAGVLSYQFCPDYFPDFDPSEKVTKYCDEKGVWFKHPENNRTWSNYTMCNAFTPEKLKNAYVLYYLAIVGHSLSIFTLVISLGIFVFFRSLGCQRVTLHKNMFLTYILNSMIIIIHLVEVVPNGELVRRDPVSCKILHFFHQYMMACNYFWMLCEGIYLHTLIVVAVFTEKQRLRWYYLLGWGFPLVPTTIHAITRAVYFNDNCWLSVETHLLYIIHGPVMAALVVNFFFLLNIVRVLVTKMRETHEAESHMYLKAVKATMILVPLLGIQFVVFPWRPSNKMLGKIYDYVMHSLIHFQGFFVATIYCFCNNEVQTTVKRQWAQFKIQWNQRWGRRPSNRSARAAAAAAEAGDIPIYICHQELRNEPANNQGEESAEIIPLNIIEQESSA

Row | EC50 | SMILES
1 | 100 pM | CC[C@H](C)[C@H](NC(=O)[C@@H]1CCCN1C(=O)CNC(=O)[C@H](Cc1ccccc1)NC(=O)[C@H](CC(N)=O)NC(=O)[C@H](CC(N)=O)NC(=O)[C@H](CO)NC(=O)[C@H](CO)NC(=O)[C@H](Cc1c[nH]cn1)NC(=O)[C@H](C)NC(=O)[C@H](CC(C)C)NC(=O)[C@H](Cc1ccccc1)NC(=O)[C@H](CC(N)=O)NC(=O)[C@H](C)NC(=O)[C@H](CC(C)C)NC(=O)[C@H](CCCNC(=N)N)NC(=O)[C@H](CCC(N)=O)NC(=O)[C@@H](NC(=O)[C@H](C)NC(=O)[C@@H]1CSSC[C@H](NC(=O)[C@H](CCCCN)NC(=O)[C@H](CCCNC(=N)N)NC(=O)CC[C@H](NC(=O)CCCCCCCCCCCCCCCCCCC(=O)O)C(=O)O)C(=O)N[C@@H](CC(N)=O)C(=O)N[C@@H]([C@@H](C)O)C(=O)N[C@@H](C)C(=O)N[C@@H]([C@@H](C)O)C(=O)N1)[C@@H](C)O)C(=O)N[C@@H](CC(C)C)C(=O)N1CCC[C@H]1C(=O)N1CCC[C@H]1C(=O)N[C@H](C(=O)N[C@@H](CC(N)=O)C(=O)N[C@H](C(=O)NCC(=O)N[C@@H](CO)C(=O)N[C@@H](CC(N)=O)C(=O)N[C@H](C(=O)N[C@@H](Cc1ccc(O)cc1)C(N)=O)[C@@H](C)O)C(C)C)[C@@H](C)O [Example 19, N-alpha-[(S)-4-Carboxy-4-(19-carboxynonadecanoylamino)butyryl]-Arg-[Ala17]-pramlintide] ({C20 diacid-γGlu}-RKCNTATCATQRLANFLAHSSNNFGPILPPTNVGSNTY-NH2; disulfide 3-8)
2 | 40 pM | CC[C@H](C)[C@H](NC(=O)[C@@H]1CCCN1C(=O)CNC(=O)[C@H](Cc1ccccc1)NC(=O)[C@H](CC(N)=O)NC(=O)[C@H](CC(N)=O)NC(=O)[C@H](CO)NC(=O)[C@H](CO)NC(=O)[C@H](Cc1c[nH]cn1)NC(=O)[C@H](Cc1c[nH]cn1)NC(=O)[C@H](CC(C)C)NC(=O)[C@H](Cc1ccccc1)NC(=O)[C@H](CC(N)=O)NC(=O)[C@H](C)NC(=O)[C@H](CC(C)C)NC(=O)[C@H](CCCNC(=N)N)NC(=O)[C@H](CCC(N)=O)NC(=O)[C@@H](NC(=O)[C@H](C)NC(=O)[C@@H]1CSSC[C@H](NC(=O)COCCOCCNC(=O)COCCOCCNC(=O)CC[C@H](NC(=O)CCCCCCCCCCCCCCCCC(=O)O)C(=O)O)C(=O)N[C@@H](CC(N)=O)C(=O)N[C@@H]([C@@H](C)O)C(=O)N[C@@H](C)C(=O)N[C@@H]([C@@H](C)O)C(=O)N1)[C@@H](C)O)C(=O)N[C@@H](CC(C)C)C(=O)N1CCC[C@H]1C(=O)N1CCC[C@H]1C(=O)N[C@H](C(=O)N[C@@H](CC(N)=O)C(=O)N[C@H](C(=O)NCC(=O)N[C@@H](CO)C(=O)N[C@@H](CC(N)=O)C(=O)N[C@H](C(=O)N[C@@H](Cc1ccc(O)cc1)C(N)=O)[C@@H](C)O)C(C)C)[C@@H](C)O [Example 62, N-alpha-[2-(2-{2-[2-(2-{2-[(S)-4-Carboxy-4-(17-carboxyheptadecanoylamino)butyrylamino]ethoxy}ethoxy)acetylamino]ethoxy}ethoxy)acetyl][His17]-pramlintide (2-37)] ({C18 diacid-γGlu-AEEA-AEEA}-CNTATCATQRLANFLHHSSNNFGPILPPTNVGSNTY-NH2; disulfide 1-6)
3 | 300 pM | CC[C@H](C)[C@H](NC(=O)[C@@H]1CCCN1C(=O)CNC(=O)[C@H](Cc1ccccc1)NC(=O)[C@H](CC(N)=O)NC(=O)[C@H](CC(N)=O)NC(=O)[C@H](CO)NC(=O)[C@H](CO)NC(=O)[C@H](Cc1c[nH]cn1)NC(=O)[C@H](Cc1c[nH]cn1)NC(=O)[C@H](CC(C)C)NC(=O)[C@H](Cc1ccccc1)NC(=O)[C@H](CC(N)=O)NC(=O)[C@H](C)NC(=O)[C@H](CC(C)C)NC(=O)[C@H](CCCNC(=N)N)NC(=O)[C@H](CCC(N)=O)NC(=O)[C@@H](NC(=O)[C@H](C)NC(=O)[C@@H]1CSSC[C@H](NC(=O)[C@H](CCC(=O)O)NC(=O)[C@H](CCC(=O)O)NC(=O)CC[C@H](NC(=O)CCCCCCCCCCCCCCCCCCC(=O)O)C(=O)O)C(=O)N[C@@H](CC(N)=O)C(=O)N[C@@H]([C@@H](C)O)C(=O)N[C@@H](C)C(=O)N[C@@H]([C@@H](C)O)C(=O)N1)[C@@H](C)O)C(=O)N[C@@H](CC(C)C)C(=O)N1CCC[C@H]1C(=O)N1CCC[C@H]1C(=O)N[C@H](C(=O)N[C@@H](CC(N)=O)C(=O)N[C@H](C(=O)NCC(=O)N[C@@H](CO)C(=O)N[C@@H](CC(N)=O)C(=O)N[C@H](C(=O)N[C@@H](Cc1ccc(O)cc1)C(N)=O)[C@@H](C)O)C(C)C)[C@@H](C)O [Example 50, N-alpha-[(S)-4-Carboxy-4-(19-carboxynonadecanoylamino)butyryl]-Glu-[Glu1,His17]-pramlintide] ({C20 diacid-γGlu}-EECNTATCATQRLANFLHHSSNNFGPILPPTNVGSNTY-NH2; disulfide 3-8)
4 | 600 pM | CC(C)C[C@H](NC(=O)[C@H](CCCNC(=N)N)NC(=O)[C@H](CCC(N)=O)NC(=O)[C@@H](NC(=O)[C@H](C)NC(=O)[C@@H]1CSSC[C@H](NC(=O)[C@H](CCC(=O)O)NC(=O)[C@H](CCCNC(=N)N)NC(=O)[C@H](CCC(=O)O)NC(=O)CC[C@H](NC(=O)CCCCCCCCCCCCCCCCCCC(=O)O)C(=O)O)C(=O)N[C@@H](CC(N)=O)C(=O)N[C@@H]([C@@H](C)O)C(=O)N[C@@H](C)C(=O)N[C@@H]([C@@H](C)O)C(=O)N1)[C@@H](C)O)C(=O)N[C@@H](C)C(=O)N[C@@H](CC(=O)O)C(=O)N[C@@H](Cc1ccccc1)C(=O)N[C@@H](CC(C)C)C(=O)N[C@@H](Cc1c[nH]cn1)C(=O)N[C@@H](Cc1c[nH]cn1)C(=O)N[C@@H](CO)C(=O)N[C@@H](CO)C(=O)N[C@@H](CC(N)=O)C(=O)N[C@@H](CC(N)=O)C(=O)N[C@@H](Cc1ccccc1)C(=O)NCC(=O)N[C@@H](C)C(=O)N1CCC[C@H]1C(=O)N[C@@H](CC(C)C)C(=O)N[C@@H](CO)C(=O)N[C@@H](CO)C(=O)N[C@H](C(=O)N[C@@H](CC(N)=O)C(=O)N[C@H](C(=O)NCC(=O)N[C@@H](CO)C(=O)N[C@@H](CC(N)=O)C(=O)N[C@H](C(=O)N[C@@H](Cc1ccc(O)cc1)C(N)=O)[C@@H](C)O)C(C)C)[C@@H](C)O [Example 42, N-alpha-[(S)-4-Carboxy-4-(19-carboxynonadecanoylamino)butyryl]-Glu-Arg-[Glu1,Asp14,His17,Ala25,Pro26,Ser28,Ser29]-pramlintide] ({C20 diacid-γGlu}-ERECNTATCATQRLADFLHHSSNNFGAPLSSTNVGSNTY-NH2; disulfide 4-9)
